Where two headings read alike, the source gives them in different places.
How the values were obtained:
[1] = Stability of ceftriaxone stock and working solutions; settings: for Stock solution stability: stock solution 10 mg/ml in water; for Working solution stability: weakest working solution 50 µg/ml
Description: (§1) Stock solution 10 mg/ml was evaluated at -80°C and at +4°C for 5 days, and in room temperature (+24°C) for 8 hrs. The lowest concentration of working solution 50 µg/ml was also evaluated at -80°C for 5 days and at room temperature (24°C) for 5 hrs. Spiked plasma stored at ambient temperature and at 4°C for 48 h was used to evaluate short-term stability. Long-term stability of spiked samples at -80°C was evaluated after 7 months. Freeze-thaw stability was evaluated for plasma samples and haemolysed plasma samples for five cycles. The samples were stored at -80°C for 24 h followed by unassisted thawing at room temperature for 2–3 h and subsequent re-freezing at -80°C. The stability of precipitated samples stored at ambient temperature (about 23°C) for 4 h was also evaluated. The stability of extracted samples in the LC autosampler kept at 10°C was evaluated by re-injecting the calibrators and QC samples 65 h after initial injection. The acceptance criteria for stability was achieved when the RSD of stability samples was below ±15%, and the accuracy of mean concentrations was within ±15% of nominal concentration.
(§2) The stability samples were quantified using a calibration curve in CPD plasma. Stability samples in CPD plasma were compared to the average measured concentration of CPD QC samples added in the same run. The CPD calibration curve was also used to quantify heparin and EDTA stability samples due to limited supply of volunteer donor blood. However, since EDTA and heparin have different recovery from plasma compared to CPD, a direct comparison would be biased. Thus, stability samples were instead compared with the average measured concentration of the precision and accuracy of each anticoagulant.

[2] = Stability of ceftriaxone in spiked human plasma under different storage conditions (LC-MS/MS); format: physicochemical; settings: for Stability, Precipitated 4hrs in RT: protein precipitated; for Stability in plasma, F/T cycle 5 / Stability in plasma, F/T cycle 3: freeze -80°C/thaw RT; for Stability in plasma, RT 24 hrs / Stability in plasma, RT 48 hrs: RT about 23°C
Description: as §1, §2

[3] = cited from earlier work
[4] = Stability of ceftriaxone in acidic (pH about 2) and neutral pH dilutions; settings: +4°C
[5] = cited from earlier work; remark: listed apart in the source
[6] = Stability of extracted samples in the LC autosampler at 10°C; format: physicochemical, human
[7] = QC1, 2.97 µg/ml, CPD haemolysis plasma
[8] = QC1, 2.97 µg/ml, CPD plasma, vs average measured CPD QC concentration in same run
[9] = QC1, 2.97 µg/ml, EDTA plasma, vs average of four precision and accuracy batches
[10] = QC1, 2.97 µg/ml, EDTA plasma, vs average of four precision and accuracy batches for this anticoagulant
[11] = QC1, 2.97 µg/ml, Li-heparin plasma, vs average of four precision and accuracy batches
[12] = QC1, 2.97 µg/ml, Na-heparin haemolysis plasma
[13] = QC1, 2.97 µg/ml, Na-heparin plasma, vs average of four precision and accuracy batches
[14] = QC3, 155 µg/ml, CPD haemolysis plasma
[15] = QC3, 155 µg/ml, CPD plasma, vs average measured CPD QC concentration in same run
[16] = QC3, 155 µg/ml, EDTA plasma, vs average of four precision and accuracy batches
[17] = QC3, 155 µg/ml, Li-heparin plasma, vs average of four precision and accuracy batches
[18] = QC3, 155 µg/ml, Na-heparin haemolysis plasma
[19] = QC3, 155 µg/ml, Na-heparin plasma, vs average of four precision and accuracy batches

CO/N=C(\C(=O)N[C@@H]1C(=O)N2C(C(=O)O)=C(CSc3nc(=O)c(=O)[nH]n3C)CS[C@H]12)c1csc(N)n1 [ceftriaxone]
Stock solution stability ([1]; +4°C for 5 days): above 98% | Stock solution stability ([1]; -80°C for 5 days): above 98% | Stock solution stability ([1]; workbench +24°C for 8 hrs): above 98% | Working solution stability ([1]; -80°C for 5 days): about 98% | Working solution stability ([1]; workbench +24°C for 5 hrs): about 98% | Stability, Precipitated 4hrs in RT [2, 7]: 99.3% | Stability in plasma, F/T cycle 5 [2, 7]: 88.4% | Stability, Precipitated 4hrs in RT [2, 8]: 94.2% | Stability in plasma, RT 24 hrs [2, 8]: 106% | Stability in plasma, RT 48 hrs [2, 8]: 100% | Stability in plasma, F/T cycle 3 [2, 8]: 97.7% | Stability in plasma, F/T cycle 5 [2, 8]: 94.0% | Stability in plasma, 4°C 24 hrs [2, 8]: 102% | Stability in plasma, 4°C 48 hrs [2, 8]: 103% | Stability in plasma, -80°C 224 days [2, 8]: 103% | Stability, Precipitated 4hrs in RT [2, 9]: 98.0% | Stability in plasma, RT 24 hrs [2, 10]: 105% | Stability in plasma, F/T cycle 3 [2, 9]: 103% | Stability in plasma, F/T cycle 5 [2, 9]: 103% | Stability in plasma, -80°C 224 days [2, 9]: 95.5% | Stability in plasma, 4°C 24 hrs [2, 10]: 113% | Stability, Precipitated 4hrs in RT [2, 11]: 103% | Stability in plasma, RT 24 hrs ([2]; QC1, 2.97 µg/ml, Li-heparin plasma, vs average of four precision and accuracy batches for this anticoagulant): 105% | Stability in plasma, F/T cycle 3 [2, 11]: 95.7% | Stability in plasma, F/T cycle 5 [2, 11]: 99.5% | Stability in plasma, 4°C 24 hrs [2, 11]: 98.3% | Stability in plasma, -80°C 224 days [2, 11]: 96.0% | Stability, Precipitated 4hrs in RT [2, 12]: 91.9% | Stability in plasma, F/T cycle 3 [2, 12]: 91.3% | Stability in plasma, F/T cycle 5 [2, 12]: 97.6% | Stability, Precipitated 4hrs in RT [2, 13]: 96.8% | Stability in plasma, RT 24 hrs ([2]; QC1, 2.97 µg/ml, Na-heparin plasma, vs average of four precision and accuracy batches for this anticoagulant): 103% | Stability in plasma, F/T cycle 3 [2, 13]: 100% | Stability in plasma, F/T cycle 5 [2, 13]: 98.7% | Stability in plasma, 4°C 24 hrs [2, 13]: 109% | Stability in plasma, -80°C 224 days [2, 13]: 93.7% | Stability, Precipitated 4hrs in RT [2, 14]: 94.3% | Stability in plasma, F/T cycle 5 [2, 14]: 98.6% | Stability, Precipitated 4hrs in RT [2, 15]: 101% | Stability in plasma, RT 24 hrs [2, 15]: 99.8% | Stability in plasma, RT 48 hrs [2, 15]: 99.6% | Stability in plasma, F/T cycle 3 [2, 15]: 99.1% | Stability in plasma, F/T cycle 5 [2, 15]: 95.0% | Stability in plasma, 4°C 24 hrs [2, 15]: 101% | Stability in plasma, -80°C 224 days [2, 15]: 109% | Stability, Precipitated 4hrs in RT [2, 16]: 90.9% | Stability in plasma, F/T cycle 3 [2, 16]: 97.9% | Stability in plasma, F/T cycle 5 [2, 16]: 95.5% | Stability in plasma, 4°C 24 hrs [2, 16]: 104% | Stability in plasma, -80°C 224 days [2, 16]: 92.8% | Stability, Precipitated 4hrs in RT [2, 17]: 91.4% | Stability in plasma, RT 24 hrs ([2]; QC3, 155 µg/ml, Li-heparin plasma, vs average of four precision and accuracy batches for this anticoagulant): 101% | Stability in plasma, F/T cycle 3 [2, 17]: 96.1% | Stability in plasma, F/T cycle 5 [2, 17]: 94.2% | Stability in plasma, 4°C 24 hrs [2, 17]: 108% | Stability in plasma, -80°C 224 days [2, 17]: 98.8% | Stability, Precipitated 4hrs in RT [2, 18]: 88.8% | Stability in plasma, F/T cycle 3 [2, 18]: 90.4% | Stability in plasma, F/T cycle 5 [2, 18]: 88.5% | Stability, Precipitated 4hrs in RT [2, 19]: 88.2% | Stability in plasma, F/T cycle 3 [2, 19]: 97.5% | Stability in plasma, F/T cycle 5 [2, 19]: 93.7% | Stability in plasma, 4°C 24 hrs [2, 19]: 106% | Stability in plasma, -80°C 224 days [2, 19]: 94.5% | Stability of protein precipitated samples ([2]; ambient temperature (about 23°C) for 4 h prior to transfer to Phree plate): good stability | Freeze-thaw stability in plasma ([2]; five cycles, QC samples in all anticoagulants, including plasma with moderate haemolysis): good stability | Short-term stability in plasma ([2]; up to 24 h at ambient temperature (about 23°C) and 4°C in all anticoagulants, CPD plasma up to 48 h): confirmed | Mean plasma concentration 24 h after administration ([3]; 0.5-g intravenous dose): 5300 ng/mL | Mean plasma concentration 24 h after administration ([3]; 1-g intravenous dose): 9300 ng/mL | Mean plasma concentration 24 h after administration ([3]; 2-g intravenous dose): 15100 ng/mL | Population mean peak levels ([3]; standard 2-g daily dose, critically ill patients with sepsis): below 200 μg/ml | Degradation ([4]; 10 mM ammonium formate containing 2% formic acid (pH about 2), dark, 48 hrs): 95% | Remaining of initial concentration ([4]; ammonium formate 10 mM with 2% formic acid (pH about 2), 2 days (48 hrs)): 5% | Remaining of initial concentration ([4]; ammonium formate 10 mM with 2% formic acid (pH about 2), 3 days): less than 1% | Remaining of initial concentration ([4]; dilutions in solutions with neutral pH, 2 and 3 days): 95–100% | Degradation ([5]; acid hydrolysis with 0.1 M hydrochloric acid, 30 minutes, ref Shrestha et al. 24): 19.6% | LC-stability ([5]; post-extraction dilution of samples using 0.5% formic acid in water, ref Herrera-Hidalgo et al. 31): 4 h | Variation in QC concentrations ([6]; extracted samples in LC autosampler 10°C up to 65 h, full set of calibrators and QC re-injected): less than 10% | Loss, original injection vs 65-h injection ([6]; extracted samples in LC autosampler 10°C, 65 h): about 20%

Reference: PMC9379334, “Determination of ceftriaxone in human plasma using liquid chromatography–tandem mass spectrometry” (Wellcome Open Research, 2022)
